Results published in the supplement of paper PMC10307832.

Experiments:
Experiment in all cases: relative viability (nuclei count vs DMSO), 5 days (fraction); higher = more cells survive
[1] = compound: O=C(C[C@H]1NCCC[C@@H]1O)Cn1cnc2cc(Br)c(Cl)cc2c1=O (racemic) [Halofuginone] + Cc1cc(Nc2cc(N3CCN(C)CC3)nc(Sc3ccc(NC(=O)C4CC4)cc3)n2)n[nH]1 [Tozasertib] (partner 0.1 µM)
In short: (§1)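 The day after seeding in 1536-well plates, lung cancer cell lines were treated by pin tool with a single drug, or with a fixed anchor-drug dose together with five library-drug doses (not always all listed) in √10 steps. After 5 days, a combined fix-and-stain solution (final 0.05% Triton X-100, 1% formaldehyde, 1 ug/ml Hoechst) was added. Nuclei counted on 4× images gave relative viability as treated counts over vehicle counts, reported as the median of duplicate plates.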

[2] = compound: O=C(C[C@H]1NCCC[C@@H]1O)Cn1cnc2cc(Br)c(Cl)cc2c1=O (racemic) [Halofuginone] + CS(=O)(=O)N1CCN(Cc2cc3nc(-c4cccc5[nH]ncc45)nc(N4CCOCC4)c3s2)CC1 [Pictilisib] (partner 1 µM)
In short: as §1

[3] = compound: COc1cc2c(Oc3ccc4[nH]c(C)cc4c3F)ncnc2cc1OCCCN1CCCC1 [Cediranib] + O=C(c1cc(Cc2n[nH]c(=O)c3ccccc23)ccc1F)N1CCN(C(=O)C2CC2)CC1 [Olaparib] (partner 8 µM)
In short: as §1

[4] = compound: COc1cc2c(Oc3ccc4[nH]c(C)cc4c3F)ncnc2cc1OCCCN1CCCC1 [Cediranib]
In short: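 A plate was accepted only when its control CV was below 25% and the cells had doubled at least once. Viability is defined from nuclear counts as treated wells divided by vehicle wells, with the median taken across plates. That median covers lung cancer cell lines grown in 1536-well plates, dosed by pinning at five √10-spaced library-drug concentrations, and counted in MetaXpress from 4× Hoechst images after 5 days.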

| Cell Line | relative viability ([1]; first compound 0.001 µM) | relative viability ([1]; first compound 0.003162 µM) | relative viability ([1]; first compound 0.01 µM) | relative viability ([1]; first compound 0.03162 µM) | relative viability ([1]; first compound 0.1 µM) | relative viability ([2]; first compound 0.001 µM) | relative viability ([2]; first compound 0.003162 µM) | relative viability ([2]; first compound 0.01 µM) | relative viability ([2]; first compound 0.03162 µM) | relative viability ([2]; first compound 0.1 µM) | relative viability ([3]; first compound 0.04 µM) | relative viability ([3]; first compound 0.4 µM) | relative viability ([3]; first compound 1.265 µM) | relative viability ([3]; first compound 4 µM) | relative viability ([4]; 0.04 µM) | relative viability ([4]; 0.1265 µM) | relative viability ([4]; 0.4 µM) | relative viability ([4]; 1.265 µM) | relative viability ([4]; 4 µM) | relative viability ([3]; first compound 0.1265 µM) |
| --- | --- | --- | --- | --- | --- | --- | --- | --- | --- | --- | --- | --- | --- | --- | --- | --- | --- | --- | --- | --- |
| NCI-H3122 | 0.38 | 0.381 | 0.356 | 0.414 | 0.166 | 0.58 | 0.581 | 0.538 | 0.67 | 0.494 | 0.702 | 0.577 | 0.601 | 0.651 | 1.09 | 0.765 | 0.977 | 1 | 1.01 | – |
| PC-3 [JPC-3] | 0.863 | 0.872 | 0.863 | 0.874 | 0.856 | 0.703 | 0.78 | 0.699 | 0.772 | 0.769 | 1.23 | 1.09 | 1.21 | 0.834 | 0.921 | 0.959 | 0.933 | 1.09 | 0.973 | – |
| PC-14 | 0.701 | 0.626 | 0.495 | 0.529 | 0.208 | 0.573 | 0.635 | 0.5 | 0.262 | 0.037 | 0.348 | 0.261 | 0.258 | 0.377 | 1.06 | 1.08 | 0.959 | 0.931 | 0.998 | 0.23 |
| RERF-LC-KJ | 0.549 | 0.484 | 0.468 | 0.456 | 0.346 | 0.568 | 0.601 | 0.543 | 0.531 | 0.433 | 0.841 | 0.915 | 0.998 | 0.979 | 1.01 | 0.862 | 0.946 | 0.963 | 1.05 | 0.866 |
| SK-LU-1 | 0.367 | 0.381 | 0.34 | 0.313 | 0.171 | 0.766 | 0.633 | 0.557 | 0.493 | 0.415 | 0.617 | 0.426 | 0.462 | 0.497 | 1.12 | 1.02 | 0.957 | 0.924 | 1.11 | 0.488 |
| SK-MES-1 | 1.03 | 0.926 | 0.754 | 0.647 | 0.168 | 0.366 | 0.358 | 0.362 | 0.211 | 0.145 | 0.728 | 0.642 | 0.685 | 0.899 | 1.06 | 1.12 | 0.961 | 0.967 | 1.09 | 0.73 |
| SW 1573 | 0.242 | 0.192 | 0.111 | 0.129 | 0.121 | 0.451 | 0.532 | 0.435 | 0.34 | 0.18 | 0.522 | 0.504 | 0.42 | 0.488 | 1.01 | 0.974 | 0.969 | 0.828 | 0.927 | 0.485 |
